In brackets after ≈: the same amount, converted by molar mass.
Conditions: buffer; pH 7.4; 200.0 µM

Compound	solubility kinetic [µg/mL]
O=c1c2cc3c(nc2[nH]c(=S)n1-c1ccccc1)CCCC3	0.5 (≈ 1.62 µM)
O=C(N/N=C/c1ccccc1Cl)C1CC1	> 33.4
Cc1ccc(N=C2C(=O)Nc3ccc(C)c(Br)c32)cc1	32.6 (≈ 99 µM)
Nc1cccc(-c2cnc3ccccc3n2)c1	> 33.2
O=C(CN1CCCCCC1)Nc1ccc(Cl)cn1	35.3 (≈ 132 µM)
Nc1nccnc1C(=O)OCC(=O)NC1CCCc2ccccc21 (stereo unspecified)	44.5 (≈ 136 µM)
COc1ccc(S(=O)(=O)Nc2cccnc2)c(C)c1C	19.8 (≈ 67.7 µM)
CCCOc1ccc(/C=C/C(=O)NC2CCCCC2)cc1	< 0.6
CCN(CC)C(=O)CN(C#N)c1nc(Cl)nc(N(C)C)n1	41.3 (≈ 132 µM)
O=C(CSc1nc2ccccc2c(=O)n1CCCN1CCOCC1)NCCc1ccccc1	64.3 (≈ 138 µM)
NC(=O)CSc1ccc(S(=O)(=O)N2CCOCC2)cn1	> 47.6
Cc1cccc(NC(=O)C2CCCCN2S(=O)(=O)c2ccccc2)c1C (stereo unspecified)	45.1 (≈ 121 µM)
Cc1cccc2sc(N(CCN(C)C)C(=O)c3ccc4ccccc4c3)nc12.Cl	0.4
COCCNS(=O)(=O)c1ccc(C)c(C)c1C	34.9 (≈ 136 µM)
CCCCN(C(=O)Nc1ccccc1)C1CCS(=O)(=O)C1 (stereo unspecified)	> 46.6
OC(c1nc2ccccc2[nH]1)C(O)c1nc2ccccc2[nH]1 (stereo unspecified)	> 44.1
CCOC(=O)c1ccc(NC(=S)NCCCn2ccnc2)cc1	> 49.9
Cc1ccc(CSC2=NCCN2C(=O)c2ccc([N+](=O)[O-])cc2)cc1	6.3 (≈ 17.7 µM)
Br.Clc1ccccc1CNCC1CCCO1 (stereo unspecified)	41
Cc1cc(C(=O)N2CCOCC2)c(C)o1	> 31.4
CN=C(N)NC(=O)Nc1c(C)cccc1C.Cl	> 38.5
O=C(Nc1nnc(-c2cccnc2)o1)c1cccc([N+](=O)[O-])c1	> 46.7
COc1cccc(-c2nc(-c3ccc(Br)o3)no2)c1	0.5 (≈ 1.56 µM)
O=C(CS(=O)(=O)c1ccccc1)NCc1ccco1	40.7 (≈ 146 µM)
O=C(OCC(=O)N1CCc2ccccc21)[C@@H]1CC(O)CN1S(=O)(=O)c1ccc(Cl)cc1 (stereo partly specified)	50.4 (≈ 108 µM)

Compound	solubility kinetic [µg/mL]
COc1ccc(NC(=O)c2cc([N+](=O)[O-])ccc2O)cc1	> 43.2
Cl.O=C(COc1ccc(Br)cc1)OCCN1CCCCC1	> 56.8
CCN(CC)Cc1oc(-c2ccccc2)cc1C(=O)O	32.2 (≈ 118 µM)
COCCNC(=S)NC(=O)c1ccc(C(C)(C)C)cc1	14 (≈ 47.6 µM)
COc1ccc(-c2nc(N)ncc2-c2ccccc2OC)c(O)c1	23.3 (≈ 72.1 µM)
CC1CC(C)CN(C(=O)COC(=O)c2cncc(Br)c2)C1 (stereo unspecified)	42.4 (≈ 119 µM)
CN(C(=O)Nc1ccccc1)C1CCCCC1	8.6 (≈ 37 µM)
O=C(NCCCNC(=O)c1ccccn1)c1ccc(F)cc1	> 45.2
CCCc1cc(C(=O)Nc2cc(OC)ccc2OC)cs1	8.6 (≈ 28.2 µM)
O=C(CC(NC(=O)c1ccccc1)c1ccccc1)NCc1ccccc1 (stereo unspecified)	4.1 (≈ 11.4 µM)
CC1CC(=O)Nc2ccccc2N1C(=O)COc1ccc2ccccc2c1 (stereo unspecified)	8.8 (≈ 24.4 µM)
O=c1oc2ccccc2c(Nc2ccccc2)c1CN1CCCCC1	44.1 (≈ 132 µM)
Cc1ccc(NC(=O)c2ccc(F)cc2F)cc1NS(C)(=O)=O	39.7 (≈ 117 µM)
Cc1cccc(SCC(=O)Nc2ccccc2[N+](=O)[O-])c1	3.7 (≈ 12.2 µM)
O=C(Nc1ccc(F)cc1)N1CCN(C(=O)C2CCCO2)CC1 (stereo unspecified)	> 48.2
Cc1cc(C(=O)N2CCCC(C(=O)c3cc(F)ccc3F)C2)c(C)o1 (stereo unspecified)	42.5 (≈ 122 µM)
Cc1ccc(NC(=O)N2CCN(C(=O)C3CCCO3)CC2)cc1 (stereo unspecified)	> 47.6
COc1ccc(NC(=S)NCCCN2CCCC2)cc1Cl	> 49.2
O=C(OCC(=O)N1CCc2ccccc2C1)c1c(F)cccc1Cl	31.8 (≈ 91.4 µM)
COC(=O)Cn1c2ccc(Cl)cc2c2nc(C)sc21	35.3 (≈ 120 µM)
Cc1ccc(C2CC(=O)NC(SCC(N)=O)=C2C#N)s1 (stereo unspecified)	> 46.1
CNC(=S)N(CCCO)Cc1cc2cc3c(cc2[nH]c1=O)OCO3	8.2 (≈ 23.5 µM)
CC(OC(=O)/C=C/c1cccc(F)c1)C(=O)NC1CCCCC1C (stereo unspecified)	1.9 (≈ 5.7 µM)
Cc1ccc(Nc2nc(N)c(C#N)c(CC#N)c2C#N)cc1	1.6 (≈ 5.55 µM)
CCCCC(=O)NCc1ccccc1Cl	> 33.9

Compound	solubility kinetic [µg/mL]
COC(=O)c1ccc(S(=O)(=O)N2CCN(CCO)CC2)n1C	45.6 (≈ 138 µM)
Cc1ccc(C)c(C(=O)COC(=O)C(C)N2C(=O)C3C4CCC(C4)C3C2=O)c1 (stereo unspecified)	42 (≈ 110 µM)
CCCCn1c(N)c(C(=O)NCc2cccs2)c2nc3ccccc3nc21	1.6 (≈ 4.22 µM)
NC(=S)NNc1cccc2cccnc12	> 32.7
S=C(NCc1cccc(Cl)c1)NCc1ccco1	29.9 (≈ 106 µM)
O=C(COC(=O)c1ccc(F)c(S(=O)(=O)N2CCOCC2)c1)NCCc1ccc(F)cc1	17.5 (≈ 37.4 µM)
O=c1ccnc2n1COCS2	> 25.5
N#Cc1sc(C(N)=O)c(-c2ccccc2)c1-c1ccccc1	< 0.3
CC(NC(=O)CN1CCOCC1)c1ccccc1 (stereo unspecified)	> 37.2
O=C(COC(=O)c1ccc(Cl)nc1)NC1CCCc2ccccc21 (stereo unspecified)	36.1 (≈ 105 µM)
O=C(NCCCc1ccccc1)c1ccc(F)cc1	> 38.6
O=C(CN1C(=O)NC2(CCCC2)C1=O)NCc1ccc(F)cc1	> 47.9
CN(Cc1ccccc1)C(=O)COc1cc(Cl)ccc1Cl	24.1 (≈ 74.3 µM)
CC(=O)c1cc(CN2CCN(C(C)C)C(CCO)C2)cs1 (stereo unspecified)	35.7 (≈ 115 µM)
COc1ccc(-c2nc(=S)c3c(n2Cc2cccnc2)CC(C)(C)OC3)cc1	> 59
CC(C)(C)c1ccc(C(=O)Nc2ccc(Oc3cccnc3)nc2)cc1	14.1 (≈ 40.6 µM)
Cc1ccc(C)c2c1c1ccccc1n2C	1.1 (≈ 5.26 µM)
Cn1cc(C=C2C(=O)OC3(CCCCC3)OC2=O)c2ccccc21	< 0.7
Cc1ccc(C2C(N)C(=O)N2c2ccc(C)cc2)cc1 (stereo unspecified)	> 40
Cc1cccc(OC(C)C(=O)N2CCCN(C)CC2)c1C (stereo unspecified)	> 43.6
COc1ccc(NC(=O)C2CC(=O)N=C(N)S2)cc1 (stereo unspecified)	> 41.9
CN(C)c1c(F)cc(C(=O)NCc2ccccc2)cc1F	36 (≈ 124 µM)
CCc1ccccc1NC(=S)N(CCOC)C(C)c1ccco1 (stereo unspecified)	35.1 (≈ 106 µM)
Cc1cccc(NC(=O)c2ccc([N+](=O)[O-])s2)n1	9.5 (≈ 36.1 µM)
CN(C)C(=S)NC(C)(C)C	2.7 (≈ 16.8 µM)

Compound	solubility kinetic [µg/mL]
Cc1cccc(C(=O)NCC(=O)NC2CCC(C)CC2)c1 (stereo unspecified)	10.5 (≈ 36.4 µM)
O=C(O)c1ccc(N2C(=O)CSC2=S)cc1	> 38
O=C(Cc1ncc(C(F)(F)F)cc1Cl)NCc1cccnc1	> 49.5
O=C(O)c1c(NC(=O)N2CCOCC2)sc2c1CCCC2	> 46.6
Cc1ccc(C2N=C(N)Nc3nc4ccccc4n32)cc1 (stereo unspecified)	35 (≈ 126 µM)
c1ccc(COCC2CCNCC2)cc1	> 30.8
COC(=O)C1C(=O)c2c(C)noc2CC1(C)C (stereo unspecified)	> 35.6
CCOC(=O)c1c(C)[nH]c(C)c1C(=O)COC(=O)CCc1ccccc1	> 53.6
COc1ccc(CN2CCCN(C)CC2)c(OC)c1C	26.8 (≈ 96.3 µM)
O=C(COC(=O)c1ccc(F)c(S(=O)(=O)N2CCOCC2)c1)NCc1ccc(F)cc1	> 68.2
Cc1ccc(C(C)NC(=O)c2ccncc2)cc1C (stereo unspecified)	> 38.1
COc1ccc(NC(=O)C2C3CC/C=C\CCC32)cc1 (stereo unspecified)	< 0.6
CCc1cc(=O)[nH]c(SCc2cccnc2)n1	> 37.1
CCC(=O)NN1CCN(c2ccncc2S(=O)(=O)N2CCCCC2)CC1	> 57.2
CC(=O)c1ccc(NC(=O)CN2C(=O)NC3(CCCc4ccccc43)C2=O)cc1 (stereo unspecified)	> 58.7
CCCN1C2CCCC1CC(NC(=O)c1cccc(OC)c1)C2 (stereo unspecified)	> 47.5
COc1ccc(-c2noc(CN(C(=O)c3ccoc3C)C(C)C)n2)cc1	38.7 (≈ 109 µM)
O=C(NCC1CCCCC1)c1cccc(Br)c1	2.2 (≈ 7.43 µM)
N/C(Cc1ccc([N+](=O)[O-])cc1)=N\OC(=O)C1CCCCC1	41.2 (≈ 135 µM)
COC(=O)c1[nH]c2ccccc2c1CN1CCOCC1	> 41.1
O=C(CCN1C(=O)c2ccccc2C1=O)NCc1ccc(F)cc1	> 48.9
CCOC(=O)c1cc(-c2csc(Nc3ccccc3Cl)n2)on1	0.6 (≈ 1.72 µM)
Cc1cccc(S(=O)(=O)Nc2ccc(S(=O)(=O)Nc3nccs3)cc2)c1	> 61.4
S=C(Nc1ccc(Cl)cc1Cl)N1CCCC1	8.6 (≈ 31.2 µM)
Fc1ccc(N=Cc2ccc[nH]2)cc1	11 (≈ 58.4 µM)

Compound	solubility kinetic [µg/mL]
Cc1ccc(NC(=O)CSc2cccc[n+]2[O-])c([N+](=O)[O-])c1	> 47.9
O=C(CN1CCCCCC1)Nc1ccc(S(=O)(=O)N2CCCCC2)cc1	50.4 (≈ 133 µM)
O=C(CSc1ccc2ccccc2n1)NC1CC1	38 (≈ 147 µM)
O=C(CN1C(=O)NC2(CCCC2)C1=O)N1CCN(c2ccccc2O)CC1	> 55.9
CC(C)n1c(O)c(C=NCc2cccnc2)c(=O)[nH]c1=S	> 45.7
NS(=O)(=O)c1cc([N+](=O)[O-])ccc1NCc1cccnc1	44.8 (≈ 145 µM)
CCN(C(=O)COC(=O)c1cccnc1SC)C1CCCCC1	> 50.5
CCC1(c2ccccc2)C(=O)NCNC1=O	> 32.7
CCN1CCCC1CNC(=O)C(=O)NC(C)c1ccccc1 (stereo unspecified)	> 45.5
CCOC(=O)c1ccc(NC(=O)c2nc(SC)ncc2Cl)cc1	1 (≈ 2.84 µM)
CCOC(=O)c1c(C)[nH]c(C)c1S(=O)(=O)N1CCCCC1	> 47.2
Cc1ccccc1CC1CCN(CCCNC(=O)Nc2ccccc2)CC1	39.9 (≈ 109 µM)
CC1CCCCC12NC(=O)N(CC(=O)OCc1c(F)cccc1Cl)C2=O (stereo unspecified)	53.3 (≈ 139 µM)
COc1ccc(Cn2c(=S)[nH]c3ccccc3c2=O)cc1	< 0.3
COC(=O)C1CCC(=S)N1C(=O)c1ccccc1 (stereo unspecified)	> 39.5
O=C(O)CC[C@@H](C(=O)O)N1C(=O)c2ccccc2C1=O	> 41.6
COc1ccccc1NC(=S)NC(NC(C)=O)C(Cl)(Cl)Cl (stereo unspecified)	19 (≈ 51.3 µM)
CC(C)[C@H](NC(=O)c1ccccc1F)C(=O)OCC(=O)NC(=O)NC1CCCCC1	51.3 (≈ 122 µM)
Cc1ccc(C)c(NC(=O)C2CCCN2C(=O)NC2CCCCC2)c1 (stereo unspecified)	29 (≈ 84.4 µM)
Cc1ccc(C(=O)COc2ncnc3cc(Cl)ccc23)cc1	0.4 (≈ 1.28 µM)
Cc1nccc(-c2cc(-c3ccc(Cl)cc3Cl)no2)n1	< 0.2

Source: PubChem BioAssay AID1996
